Source: US20210236678A1, “HOUSEHOLD PRODUCT DELIVERING WARMING AND/OR TINGLING SENSATIONS” (TAKASAGO INTERNATIONAL CORPORATION, priority 2016, published 2021)

Columns and labels:
[1] = test system: tingling sensation in the nose; conditions: 3% in Triethyl Citrate (TEC); panel of 80 subjects; scale 0 to +100
human TRPA1 = molecular target: T1, human TRPA1 (Homo sapiens, UniProt O75762); assay: Screening on receptors TRPA1 (Fluo-8 calcium fluorescence, FLIPR, HEK-293 cells); assay type: cell-based; conditions: for EC50: HEK-293 cells stably transfected with human TRPA1, agonist, normalised to spilanthol EC100, elemi oil molarity assumes molecular weight of elemol; for agonist activity on TRPA1 compared to spilanthol (reference): HEK-293 cells with human TRPA1
T1 construct: expressed in transfected cells; host or cells: HEK-293
T1 sequence (O75762 whole entry): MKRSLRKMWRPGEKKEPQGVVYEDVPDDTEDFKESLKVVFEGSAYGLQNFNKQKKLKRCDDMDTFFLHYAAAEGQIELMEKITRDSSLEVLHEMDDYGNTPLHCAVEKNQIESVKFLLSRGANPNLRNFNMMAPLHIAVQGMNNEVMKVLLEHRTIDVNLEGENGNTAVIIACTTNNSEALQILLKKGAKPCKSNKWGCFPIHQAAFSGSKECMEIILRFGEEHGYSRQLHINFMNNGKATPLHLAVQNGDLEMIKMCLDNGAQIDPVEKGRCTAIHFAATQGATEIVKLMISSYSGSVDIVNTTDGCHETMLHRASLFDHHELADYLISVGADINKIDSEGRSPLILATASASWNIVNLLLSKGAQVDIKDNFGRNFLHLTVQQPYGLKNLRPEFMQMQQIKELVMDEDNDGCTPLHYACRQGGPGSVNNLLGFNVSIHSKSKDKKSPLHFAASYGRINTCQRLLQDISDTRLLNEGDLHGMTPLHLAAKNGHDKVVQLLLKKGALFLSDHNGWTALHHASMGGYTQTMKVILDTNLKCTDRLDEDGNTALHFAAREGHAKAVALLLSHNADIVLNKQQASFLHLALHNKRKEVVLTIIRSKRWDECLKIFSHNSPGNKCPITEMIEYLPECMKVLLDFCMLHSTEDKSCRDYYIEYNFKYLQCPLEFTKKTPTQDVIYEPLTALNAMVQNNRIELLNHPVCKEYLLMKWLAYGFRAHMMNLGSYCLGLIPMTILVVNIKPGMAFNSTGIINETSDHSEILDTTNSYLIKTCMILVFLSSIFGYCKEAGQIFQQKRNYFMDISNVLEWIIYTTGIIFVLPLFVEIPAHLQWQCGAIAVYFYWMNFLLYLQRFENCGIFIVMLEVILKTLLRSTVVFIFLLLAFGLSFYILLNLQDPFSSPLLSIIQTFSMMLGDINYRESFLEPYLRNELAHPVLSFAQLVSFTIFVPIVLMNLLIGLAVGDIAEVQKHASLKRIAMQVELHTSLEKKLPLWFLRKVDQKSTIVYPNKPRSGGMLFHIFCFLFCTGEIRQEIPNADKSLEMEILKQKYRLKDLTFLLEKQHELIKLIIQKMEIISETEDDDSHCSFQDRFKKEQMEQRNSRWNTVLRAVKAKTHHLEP
Method: The following are the test protocols used in determining whether fragrance ingredients show a response on the TRPA1 and TRPV1 receptors which are associated with tingling and warming sensations respectively. In all cases, the reaction is measured by fluorescence imaging using high throughput screening equipment.
Method for Screening on Receptors TRPA1:
HEK-293 (Human Embryonic Kidney) cells stably transfected with human TRPA1 were grown in a culture medium of EMEM (medium Essential Medium Eagle with Earl's salts balanced salt solution (Lonza catalogue No BE12-125F), 5 mL of 200 mM Ultraglutamine 1 (Lonza Catalogue No BE17-605E/U1), 5 mL of 100× Penicillin/Streptomycin (Lonza Catalogue No DE17-602E) 50 mL of Fetal bovine serum (Euroclone Cat No ECS0180L) 2 mL of 100 mg/mL Genticin sulphate (G418 sulphate InvivoGen CatAnt-gn-5).
10,000 cells/well were seeded in a 384 MTP in complete medium. Then, after 24 hours, the culture medium was manually removed. The cells were loaded with 20 μL/well of 0.5× Fluo-8 NW dye in standard Tyrode's buffer (Screen Quest™ Fluo-8 No wash Calcium assay kit supplied by AAT Bioquest catalogue No 26316). The plate was incubated for 1 hour at room temperature in the dark. 10 μL/well of test chemaesthetic agents were injected and controlled with the FLIPR^TETRA (Molecular Devices). The emitted fluorescence signal at 520 nm was recorded for 3 minutes. The compound multiwall plate contained the samples at 8 different doses in quadruplicate data points. Dose response of the samples were performed starting from 100 mM concentration in 100% DMSO with a serial dilution of 1:2 and then diluted in assay buffer at the final concentration of 100 μM, 50 μM, 25 μM, 12.5 μM, 6 μM, 3 μM, 1.5 μM, and 0.7 μM.
In the compound plate were also present a dose response of the reference agonist at 8 concentrations and in duplicate. Spilanthol was the reference agonist for TRPA1 in this study. These reference controls dosed as 16 wells (duplicates for each concentration) of reference agonist at ECioo corresponded to the MAX signal response (100% activity).
There were also 16 wells of blanks, i.e. assay buffers without either a test sample or reference compound which corresponded to the MIN signal response (0% activity). MAX and MIN controls were used for data analysis (RZ' calculation) and normalization of compound activity.
For data analysis the response value was calculated as the maximum signal of the kinetic trace after the injection minus the median of the points before injection and multiplied by the normalization factor (NF). The normalisation factor was the baseline mean of all wells in the plate divided by the baseline of a specific well.
To calculate the % of activity of the sample the response value was normalized versus MAX signal controls and MIN Signal controls to obtain the activity % according to the following formula: […]
The normalized data in percent activity were then used to perform curve fitting and EC50 calculation corresponding to the concentration that gave 50% of activation of the receptor (within a curve fitting program within the data analysis software).

human TRPV1 = molecular target: T2, human TRPV1 (Homo sapiens, UniProt Q8NER1); assay: Screening on receptors TRPV1 (fluorescence imaging, CHO-K1 cells); assay type: cell-based; conditions: for agonist activity on TRPV1 compared to capsaicin (reference): CHO-K1 cells with human TRPV1
T2 construct: expressed in transfected cells; host or cells: CHO-K1
T2 sequence (Q8NER1 whole entry): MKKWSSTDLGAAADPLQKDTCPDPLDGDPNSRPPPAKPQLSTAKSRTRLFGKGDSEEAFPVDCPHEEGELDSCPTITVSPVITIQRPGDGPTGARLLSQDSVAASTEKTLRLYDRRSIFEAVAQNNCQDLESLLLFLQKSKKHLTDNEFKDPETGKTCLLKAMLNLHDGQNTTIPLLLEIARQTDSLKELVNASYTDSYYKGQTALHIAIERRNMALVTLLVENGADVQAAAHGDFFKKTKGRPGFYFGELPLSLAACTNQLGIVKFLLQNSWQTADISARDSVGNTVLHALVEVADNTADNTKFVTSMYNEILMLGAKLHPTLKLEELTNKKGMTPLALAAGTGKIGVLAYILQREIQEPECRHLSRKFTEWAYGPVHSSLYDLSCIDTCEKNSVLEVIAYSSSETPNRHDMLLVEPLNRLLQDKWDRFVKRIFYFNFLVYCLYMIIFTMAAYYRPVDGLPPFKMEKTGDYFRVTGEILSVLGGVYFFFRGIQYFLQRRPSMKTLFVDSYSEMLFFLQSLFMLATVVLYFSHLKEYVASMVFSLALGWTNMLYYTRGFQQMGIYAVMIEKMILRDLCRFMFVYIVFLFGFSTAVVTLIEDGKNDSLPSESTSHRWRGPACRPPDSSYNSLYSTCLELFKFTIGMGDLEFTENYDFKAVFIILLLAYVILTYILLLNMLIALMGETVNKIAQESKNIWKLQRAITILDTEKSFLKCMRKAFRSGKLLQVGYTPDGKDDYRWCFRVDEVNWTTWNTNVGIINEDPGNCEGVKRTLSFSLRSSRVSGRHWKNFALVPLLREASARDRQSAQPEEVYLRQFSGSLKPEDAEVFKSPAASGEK

[2] = test system: warming perception in the nose; assay: Perception test for warming agents (panel smells samples; rating and ranking); assay type: in vivo; conditions: panel of 20 subjects; for Nemenyi multiple comparison test of warming ranking vs reference capsaicin / Mean rank (less warming = rank 1, more warming = rank 4): 1% in TEC; for Mean rank (less warming = rank 1, more warming = rank 4) / warming perception in the nose (rating), compared to the reference capsaicin: smelled; for warming perception in the nose (rating), compared to the reference capsaicin: 1% in Triethyl Citrate (TEC), scale 0 to 100, ANOVA and Student's t-test
[3] = test system: tingling perception in the nose; assay: Perception test for tingling agents (panel smells samples; rating and ranking); assay type: in vivo; conditions: panel of 20 subjects, smelled
Method: The reference spilanthol is contained in jambu and known for its tingling effect on the skin/the tongue (U.S. Pat. No. 9,890,567; J. Paulraj et al., Advances in Pharmacological Sciences, Vol. 2013, Article ID 510298, 22 pages). The samples were prepared as solutions of the pure raw materials at 1% in Triethyl Citrate (TEC), and portions decanted into small jars for testing. In a first part of the evaluation, the subjects of the panel smell the samples one by one and rate them on the following scale: tingling perception in the nose: 0 (not at all) to 100 (very strong sensation). In a second part of the evaluation, the subjects of the panel rank the […] agents from the less tingling agent (rank 1) to the more tingling agents (rank 4). The mean values obtain for the ranking where as follows: […]

Structure (SMILES) | EC50 (human TRPA1) [µM] | agonist activity on TRPV1 compared to capsaicin (reference) (human TRPV1) | tingling sensation in the nose, isopulegol compared with menthoxypropanediol [1] | agonist activity on TRPA1 compared to spilanthol (reference) (human TRPA1) | Nemenyi multiple comparison test of warming ranking vs reference capsaicin [2] | Mean rank (less warming = rank 1, more warming = rank 4) [2] | warming perception in the nose (rating), compared to the reference capsaicin [2] | other results
CC(C)[C@@H]1CC[C@@H](C)C[C@H]1OCC(O)CO (stereo partly shown) [menthoxypropanediol] | 200 | – | lower tingling sensation | comparable agonists for TRPA1 | – | – | – | –
COc1cc(CNC(=O)CCCC/C=C/C(C)C)ccc1O [capsaicin, reference compound] | – | – | – | – | – | 1.650 | – | –
C/C=C/C=C\CC/C=C/C(=O)NCC(C)C [spilanthol] | 35.5 | – | – | – | – | – | – | Mean rank (less tingling = rank 1, more tingling = rank 4) ([3]; 1% in TEC): 1.150; tingling perception in the nose (rating), compared to the reference spilanthol ([3]; 1% in Triethyl Citrate (TEC), scale 0 to 100, ANOVA and Student's t-test): little effect at all

Now from value to molecule, other results behind:

EC50 (human TRPA1) [µM] | agonist activity on TRPV1 compared to capsaicin (reference) (human TRPV1) | Structure (SMILES) | tingling sensation in the nose, isopulegol compared with menthoxypropanediol [1] | agonist activity on TRPA1 compared to spilanthol (reference) (human TRPA1) | Nemenyi multiple comparison test of warming ranking vs reference capsaicin [2] | Mean rank (less warming = rank 1, more warming = rank 4) [2] | warming perception in the nose (rating), compared to the reference capsaicin [2] | other results
– | weaker agonists for TRPV1 than capsaicin | CCCCOCc1ccc(O)c(OC)c1 [vanillyl butyl ether] | – | – | significantly more warming | 2.925 | improved warming perception | EC50 (human TRPV1): 7.58 µM
57 | – | C=C(C)[C@@H]1CC[C@@H](C)C[C@H]1O [isopulegol] | improved tingling perception | comparable agonists for TRPA1 | – | – | – | –
– | weaker agonists for TRPV1 than capsaicin | CCOCc1ccc(O)c(OC)c1 [vanillyl ethyl ether] | – | – | significantly more warming | 2.450 | improved warming perception | –
